Holding throughout (experiment): NCI anticancer screen, dose series, 48 h
For experiment [1], the system named is SW-620 colon.
For experiment [2], the system named is NCI-H226 lung.
Experiment [3] relates to M14 melanoma.
Experiment [4] concerns SN12C renal.
The test system of experiment [5] is OVCAR-4 ovarian.
Experiment [6] deals with A549 NSCLC.
Experiment [7] deals with MDA-MB-231 breast.
Experiment [8] concerns HOP-92 NSCLC.
Experiment [9] has as its system COLO 205 colon.
Experiment [10] concerns UACC-257 melanoma.

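Compound exposure: 48 hours, 5 concentrations, 96-well plates. Abbreviation: GI50, concentration required for 50% inhibition of growth. TGI denotes the concentration required for complete inhibition of growth.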

As for `COc1cc(C(O)c2nc3ccccc3s2)cc(OC)c1OC` (stereo not given), the GI50 in experiment [1] is more than 100 µM; in [2], 47.1 µM; in experiment [3], 85.3 µM; in experiment [4], more than 100 µM; in experiment [5], 30.9 µM; in [6], 86.7 µM. The GI50 in experiment [7] was 58.7 µM; in experiment [8], 1.15 µM; in [9], more than 100 µM; in [10], 26 µM. For the same compound, the TGI in experiment [1], in experiment [2], in experiment [3], in experiment [4], in [5] and in [6] was more than 100 µM each time. Besides, the TGI in [7] is more than 100 µM; in [8] it was 31.2 µM; in experiment [9], more than 100 µM; in experiment [10], more than 100 µM.
On to `Nc1ncnc2c1ncn2CC(O)C(=O)O` (stereo not given), for which the TGI in experiment [1], in [2], in experiment [3], in experiment [4], in experiment [5] and in experiment [6] was more than 100 µM in each case. Besides, the TGI in experiment [7], in experiment [8], in [9] and in experiment [10] was more than 100 µM each time.
Take `O=C(/C=C/c1cccs1)c1ccc(Nc2nc(Nc3ccc(F)cc3)nc(Nc3ccc(F)cc3)n2)cc1`: the GI50 in [1] was 28.3 µM; in experiment [2] it was more than 100 µM; in experiment [3] it was 29.7 µM; in [4], more than 100 µM; in experiment [5], 17.7 µM; in experiment [6], 3.87 µM. For the same compound, the GI50 in [7] was 34.7 µM; in experiment [8] it was 25.8 µM; in experiment [9], 12.5 µM; in experiment [10], 55.1 µM. Further, the TGI is 96.4 µM in experiment [1]; more than 100 µM in [2]; more than 100 µM in experiment [3]; more than 100 µM in experiment [4]; 46.2 µM in experiment [5]; 22.5 µM in experiment [6]. The TGI was more than 100 µM in [7], 57.8 µM in experiment [8], 80.2 µM in experiment [9] and more than 100 µM in experiment [10].
Take `COC1(O)C(=O)c2ccccc2OC1(OC)c1ccccc1` (stereo not given): the TGI in experiment [1], in experiment [2], in [3], in experiment [4], in [5] and in experiment [6] was more than 100 µM in each case. Further, the TGI in [7], in experiment [8], in experiment [9] and in [10] was more than 100 µM each time.
Consider `Cc1cc(NC(=O)NC(=O)c2ccccc2N)ccc1Oc1ncc(Br)cn1`, for which the TGI in [1] was more than 100 µM; in experiment [2], 6.64 µM; in [3], more than 31.2 µM; in experiment [4], more than 46.4 µM; in experiment [5] it was more than 75.9 µM; in [6], 20.7 µM. Moreover, the TGI turned out to be 7.93 µM in [7], 53.8 µM in experiment [8], 0.108 µM in experiment [9] and 54.2 µM in experiment [10].
For the compound `O=C1/C(=C/c2ccc([N+](=O)[O-])o2)Oc2ccc(Br)cc21`, the GI50 is 1.69 µM in experiment [1]; 2.12 µM in experiment [2]; 2.68 µM in experiment [3]; 1.96 µM in experiment [4]; 2.37 µM in [5]; 18.5 µM in [6]. Also, the GI50 in experiment [7] was 1.8 µM; in [8], 1.52 µM; in [9] it was 2.83 µM; in experiment [10], 2 µM. Besides, the TGI in [1] was found to be 3.23 µM; in experiment [2], 5.37 µM; in experiment [3], 7.01 µM; in experiment [4], 4.53 µM; in experiment [5], 6.18 µM; in experiment [6], 35.3 µM. Moreover, the TGI in experiment [7] was determined as 3.84 µM; in [8] it was 3.1 µM; in [9] it was 7.32 µM; in [10], 4.38 µM.
In the case of `NC(=O)c1cc([N+](=O)[O-])c(Cl)c([N+](=O)[O-])c1`, the GI50 was 1.9 µM in experiment [1]; 1.68 µM in [2]; 1.91 µM in experiment [3]; 1.8 µM in experiment [4]; 1.91 µM in experiment [5]; 16.9 µM in experiment [6]. Further, the GI50 is 1.96 µM in experiment [7], 1.96 µM in experiment [8], 1.99 µM in [9] and 3.87 µM in experiment [10]. Further, the TGI was found to be 3.99 µM in experiment [1]; 3.22 µM in [2]; 4.72 µM in experiment [3]; 3.57 µM in experiment [4]; 3.9 µM in experiment [5]; 32.2 µM in experiment [6]. The TGI in [7] was 3.84 µM; in experiment [8], 4.18 µM; in experiment [9] it was 3.5 µM; in [10], 15 µM.
For the compound `Cc1ccc2c(c1C)-c1c(ccc(C)c1C)C(=O)C2=O`, the TGI stood at 3.23 µM in [1]; 5.91 µM in [2]; 2.12 µM in [3]; 2.73 µM in experiment [4]; 0.554 µM in experiment [5]; 10.3 µM in experiment [6]. Further, the TGI was 8.57 µM in experiment [7], 5.02 µM in experiment [8], 4.62 µM in [9] and 3.48 µM in [10].
Regarding `C=C(C)C(=O)OC1CC2=CC(CC3(C)OC3C3OC(=O)C(=C)C13)OC2=O` (stereo not given), the TGI in experiment [1] is 5.03 µM; in experiment [2] it was 39 µM; in experiment [3], 15.4 µM; in experiment [4], 26.8 µM; in experiment [5], 29.9 µM; in experiment [6] it was 36.5 µM. Besides, the TGI in [7] is 37.1 µM; in experiment [8], 7.35 µM; in [9], 7.08 µM; in [10], 13.7 µM.
For `C[C@H]1[C@H](C)CC[C@]2(C(=O)N3CCN(C)CC3)CC[C@]3(C)C(=CC[C@@H]4[C@@]5(C)C/C(=C/c6cccnc6)C(=O)C(C)(C)[C@@H]5CC[C@]43C)[C@H]12`, the GI50 was 0.924 µM in [1]; 1.81 µM in experiment [2]; 0.802 µM in experiment [3]; 1.15 µM in experiment [4]; 1.07 µM in experiment [5]; 1.06 µM in [6]. Further, the GI50 in [7] was 0.943 µM; in experiment [8], 0.446 µM; in experiment [9], 1.53 µM; in experiment [10], 1.41 µM. In addition, the TGI was 2.51 µM in experiment [1]; 3.77 µM in experiment [2]; 2.3 µM in experiment [3]; 2.65 µM in experiment [4]; 2.48 µM in [5]; 2.32 µM in experiment [6]. In addition, the TGI was 2.25 µM in experiment [7], 1.84 µM in experiment [8], 4.78 µM in [9] and 2.91 µM in experiment [10].
As to `CN(C)c1ccc(-c2cc(-c3ccc(Nc4nc(Nc5ccccc5)nc(Nc5ccc(Cl)cc5)n4)cc3)nc(N)n2)cc1`, the GI50 in experiment [1] was 6.86 µM; in experiment [2], 12.1 µM; in [3], 3.65 µM; in [4] it was 7.52 µM; in [5] it was 5.01 µM; in experiment [6], 5.34 µM. In addition, the GI50 is 5.64 µM in experiment [7], 1.48 µM in experiment [8], 2.04 µM in experiment [9] and 5.81 µM in [10]. For the same compound, the TGI in experiment [1] was 21.8 µM; in experiment [2], 98.7 µM; in [3], 17.6 µM; in experiment [4], 42.2 µM; in [5], more than 100 µM; in experiment [6] it was more than 100 µM. In addition, the TGI in experiment [7] is 23.4 µM; in experiment [8], 13.2 µM; in experiment [9], 11.6 µM; in experiment [10], 37.4 µM.
As to `CC(C)[C@@]12C[C@@H](OC(=O)COC(=O)/C=C/c3ccccc3)[C@@](C)(O1)[C@@H]1CC[C@@H](C)[C@H]1[C@@H]2OC(=O)/C=C/c1ccccc1`, the GI50 in experiment [1] was more than 100 µM; in experiment [2] it was more than 100 µM; in experiment [3] it was more than 100 µM; in experiment [4] it was 1.42 µM; in experiment [5] it was more than 100 µM; in experiment [6] it was more than 100 µM. In addition, the GI50 is more than 100 µM in experiment [7], more than 64.9 µM in experiment [8], more than 100 µM in experiment [9] and more than 100 µM in experiment [10]. In addition, the TGI in experiment [1], in [2], in experiment [3], in [4], in experiment [5] and in experiment [6] was more than 100 µM throughout. For the same compound, the TGI in experiment [7], in experiment [8], in [9] and in experiment [10] was more than 100 µM in each case.
As for `O=C(CCCCCCSc1nc(-c2ccccc2)cc(-c2ccccc2)n1)NO`, the GI50 in experiment [1] is 1.49 µM; in experiment [2], 2.94 µM; in experiment [3], 1.58 µM; in experiment [4] it was 2.9 µM; in [5], 3.05 µM; in experiment [6], 2.45 µM. The GI50 is 2.54 µM in [7], 1.75 µM in [8], 2.67 µM in [9] and 2.23 µM in experiment [10]. The TGI in experiment [1] was found to be 12.8 µM; in experiment [2], 13.2 µM; in [3] it was 5.94 µM; in experiment [4], 10.5 µM; in experiment [5] it was 16.7 µM; in experiment [6] it was 10.4 µM. The TGI was 7.62 µM in [7], 4.95 µM in experiment [8], 10.7 µM in [9] and 11.1 µM in [10].
Regarding `CN1CCN(c2nc(NCCCCNc3ccnc4cc(Cl)ccc34)c3ccccc3n2)CC1`, the GI50 in experiment [1] was 4.42 µM; in experiment [2], 20.7 µM; in experiment [3] it was 1.83 µM; in experiment [4], 4.73 µM; in [5], 2.14 µM; in experiment [6], 5.19 µM. Moreover, the GI50 in experiment [7] was 2.14 µM; in experiment [8], 1.66 µM; in experiment [9] it was 2.1 µM; in [10], 2.03 µM. In addition, the TGI in experiment [1] is 18.2 µM; in [2], 45.8 µM; in [3], 3.47 µM; in experiment [4], 20 µM; in experiment [5] it was 6.99 µM; in experiment [6] it was 20.5 µM. The TGI in experiment [7] was found to be 5.93 µM; in [8] it was 4.12 µM; in experiment [9] it was 5.46 µM; in experiment [10], 3.9 µM.
With `COc1cc(Cn2c(=S)ss/c2=N\C(=S)N(C)C)cc(OC)c1OC`, the TGI was more than 100 µM in [1]; more than 71 µM in [2]; more than 70.7 µM in [3]; more than 100 µM in experiment [4]; more than 95.6 µM in experiment [5]; more than 100 µM in experiment [6]. Also, the TGI in experiment [7] was more than 47.4 µM; in [8] it was 56.3 µM; in [9] it was more than 86.9 µM; in experiment [10], more than 100 µM.
With `COc1ccc(C(=O)/C=C/c2c(C(F)(F)F)nc3sccn23)cc1OC`, the GI50 is 1.49 µM in [1]; 6.95 µM in experiment [2]; 2.67 µM in [3]; 2.98 µM in experiment [4]; 4.08 µM in [5]; 4.65 µM in experiment [6]. Moreover, the GI50 is 5.91 µM in [7], 5.87 µM in [8], 4.56 µM in experiment [9] and 7.77 µM in experiment [10]. For the same compound, the TGI in experiment [1], in experiment [2], in [3], in [4], in experiment [5] and in [6] was more than 100 µM throughout. The TGI in [7] is more than 100 µM; in [8] it was 59.6 µM; in [9], 72.4 µM; in experiment [10], more than 100 µM.
As for `COc1ccc(-c2cnnn2-c2cc(OC)c3c(c2)OCO3)cc1`, the GI50 in experiment [1] is 0.0531 µM; in experiment [2] it was 5.71 µM; in experiment [3] it was 0.0537 µM; in experiment [4], 0.658 µM; in experiment [5], 5.9 µM; in [6], 0.107 µM. In addition, the GI50 was 0.194 µM in [7], 0.187 µM in experiment [8], 0.0578 µM in experiment [9] and 35.4 µM in [10]. The TGI in experiment [1], in [2], in experiment [3], in experiment [4], in experiment [5] and in experiment [6] was more than 100 µM each time. Besides, the TGI was 4.63 µM in experiment [7], 24.8 µM in experiment [8], 0.52 µM in experiment [9] and more than 100 µM in [10].

(Values after PubChem BioAssay (NCI).)
